Source: patent US20190015416A1, “BTK INHIBITORS FOR TREATING NEUROBLASTOMA” (The Chinese University of Hong Kong, priority 2017, published 2019)

Key:
[1] = tested on: SH-SY5Y tumor xenograft; conditions: SH-SY5Y xenograft in nude mice
From the text: SH-SY 5Y cells were inoculated into flanks of nude mice. Animals were randomly divided into four groups when tumor xenograft reached 100 mm^3. […] (FIG. 7B) Quantifications of the tumor xenografts weight. The data are expressed as mean values±S.D. (n=4 in each group). **P<0.01. […] Mean±SD values are presented. **p<0.01; *p<0.05. […] (FIG. 7D) Cell proliferations in tumor xenografts were elucidated by immunohistochemical (IHC) analysis with Ki67 antibody. Scale bar represents 50 μm. (FIG. 7E) Quantification of Ki-67-positive cells within the xenografts. Ki-67-positive cells were quantitated from 5 random fields of each tumor xenograft under the microscope (400×) using Image-Pro PLUS V6.0.0.260 software. The values were normalized to those from vehicle treated mice. The data were presented as mean values±S.D. (n=4). **p<0.01; *p<0.05. Apoptosis markers such as cleaved PARP and cleaved Caspase 3 in xenograft tumors were examined by Western blot. […] The signals densities were analyzed by Image J. The relative signals of cleavage PARP to total PARP, cleaved Caspase 3 to tubulin were normalized to those from vehicle treated mice.
Neuroblastoma xenografts in nude mice were established by injection of SH-SY5Y cells.

[2] = tested on: NBL-S cells; assay: MTT proliferation assay; type: cell-based, human; conditions: 48 hr treatment or transfection, normalized to DMSO
Protocol: (§1) FIGS. 5A-5G: BTK signaling regulates cell proliferation. […] MTT were performed to measure the cell viability, the absorbance of treated cell groups was normalized to that of DMSO treated cells. (FIGS. 5C, 5D) MTT assay of NBL-S or SH-SY5Y cells transfected with BTK (FIG. 5C) or BTK siRNA (FIG. 5D) at 48 hr after transfection. […] (FIG. 5E) NBL-S cells and SH-SY5Y cells were treated with the inhibitors either separately or the combinations as indicated, and the treated cells were collected at different time points for MTT assay. The absorbance of treated cell groups was normalized to that of control cells treated with DMSO.
(§2) Neuroblastoma cells were seeded in 96-well plates at a concentration of 5×10^3 per well. After siRNA transfection or inhibitor treatment for 48 hours, 10 ul MTT ([…]) is added into every well followed by incubation for 4 hours. The absorbance was measured at A570 nm.

[3] = tested on: SH-SY5Y cells; assay: MTT proliferation assay; type: cell-based, human; conditions: 48 hr treatment or transfection, normalized to DMSO
Protocol: as §1, §2

[4] = tested on: SH-SY5Y cells; assay: Cell cycle distribution by flow cytometry; type: cell-based, human; conditions: 24 hr, Ibrutinib 2.5 μM, NVP-TAE684 100 nM, Crizotinib 250 nM, control 64.90%

| SMILES | proliferation of neuroblastoma cells in vivo (Ki67 immunostaining) ([1]; 14 days treatment) | cell apoptosis in tumor xenograft (cleaved caspase 3 and PARP) ([1]; Western blot) | growth of neuroblastoma xenograft ([1]; intraperitoneal injection, 14 days) | cell proliferation (MTT) [2] | cell proliferation (MTT) [3] | cell portion at G0/G1 phase [4] [%] |
| --- | --- | --- | --- | --- | --- | --- |
| C[C@@H](Oc1cc(-c2cnn(C3CCNCC3)c2)cnc1N)c1c(Cl)ccc(F)c1Cl [Crizotinib] | inhibited proliferation | potentiated cell apoptosis | only moderately inhibited | can be inhibited | insensitive | – |
| C=CC(=O)N1CCC[C@@H](n2nc(-c3ccc(Oc4ccccc4)cc3)c3c(N)ncnc32)C1 [Ibrutinib, 1-((R)-3-(4-amino-3-(4-phenoxyphenyl)-1H-pyrazolo[3,4-d]pyrimidin-1-yl)pi-peridin-1-yl)prop-2-en-1-one] | – | – | – | – | – | 73.8 |
| COc1cc(N2CCC(N3CCN(C)CC3)CC2)ccc1Nc1ncc(Cl)c(Nc2ccccc2S(=O)(=O)C(C)C)n1 [NVP-TAE684] | – | – | – | can be inhibited | can be inhibited | – |
